In patent US20220330549A1, “USE OF N-BENZYLBENZAMIDE-BASED COMPOUND AS HERBICIDE” (Northwest A&F University, priority 2020, published 2022):

How the values were obtained:
Type in all cases: in vivo
Barnyard grass [1] = assay: Herbicidal activity test for indoor pre-emergence soil treatment; parameters: key: level 1-9; higher = more weed remaining vs blank control; settings: 150 g a.i./ha, visual inspection 21 days after treatment
Summary of the method: (§1)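 Pre-emergence soil spray per NY/T 1155.3-2006: weed seeds sown in moistened neutral sandy loam (organic content ≤2%), covered with 0.5–2.0 cm soil, then sprayed 24 h later with a water-diluted 10% emulsifiable concentrate at 150 g(a.i.)/ha. Visual rating after 21 days on a 1–9 scale.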

Piemarker [2] = assay: as above; parameters: key: level 1-9; higher = more weed remaining vs blank control; settings: 150 g a.i./ha, visual inspection 21 days after treatment
Summary of the method: as §1

green bristlegrass [3] = assay: as above; parameters: key: level 1-9; higher = more weed remaining vs blank control; settings: 150 g a.i./ha, visual inspection 21 days after treatment
Summary of the method: as §1

Amaranthus retroflexus [4] = assay: as above; parameters: key: 1-9 levels; higher = more weed remaining vs blank control; settings: 150 g a.i./ha, visual inspection 21 days after treatment
Summary of the method: as §1

Digitaria sanguinalis [5] = assay: as above; parameters: key: 1-9 levels; higher = more weed remaining vs blank control; settings: 150 g a.i./ha, visual inspection 21 days after treatment
Summary of the method: as §1

Humulus scandens [6] = assay: as above; settings: 150 g a.i./ha, visual inspection 21 days after treatment
Summary of the method: as §1

Amaranthus retroflexus [7] = assay: Herbicidal activity test for indoor post-emergence spraying on stems and leaves; parameters: key: grade level by weed remaining vs blank control, e.g. 5 = 10.1-15%; settings: 150 g a.i./ha, visual inspection 21 days after treatment
Summary of the method: (§2)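 Run per NY/T 1155.4-2006: weeds sown, grown in greenhouse, then sprayed post-emergence on stems and leaves. Effect scored visually 21 days after treatment on a graded level scale relative to weed in the blank control area.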

Barnyard grass [8] = assay: as above; parameters: key: grade level by weed remaining vs blank control, e.g. 5 = 10.1-15%; settings: 150 g a.i./ha, visual inspection 21 days after treatment
Summary of the method: as §2

Digitaria sanguinalis [9] = assay: as above; parameters: key: grade level by weed remaining vs blank control, e.g. 5 = 10.1-15%; settings: 150 g a.i./ha, visual inspection 21 days after treatment
Summary of the method: as §2

Humulus scandens [10] = assay: as above; parameters: key: grade level by weed remaining vs blank control, e.g. 5 = 10.1-15%; settings: 150 g a.i./ha, visual inspection 21 days after treatment
Summary of the method: as §2

Piemarker [11] = assay: as above; parameters: key: grade level by weed remaining vs blank control, e.g. 5 = 10.1-15%; settings: 150 g a.i./ha, visual inspection 21 days after treatment
Summary of the method: as §2

green bristlegrass [12] = assay: as above; parameters: key: grade level by weed remaining vs blank control, e.g. 5 = 10.1-15%; settings: 150 g a.i./ha, visual inspection 21 days after treatment
Summary of the method: as §2

Broadleaf weed = assay: Post-emergence herbicidal activity test in a paddy field; parameters: key: level scale; higher level = more weed left vs blank control; settings: 150 g a.i./ha (penoxsulam control 250 g(a.i.)/h)
Summary of the method: (§3)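 Efficacy was visually estimated 15 and 30 days after spraying, grading weed coverage relative to an untreated neighbouring plot (level 2 = 0 to 2.5%, level 9 = 67.6 to 100%). Treatments were 150 g(a.i.)/ha from 10% emulsifiable concentrates applied at the 4-5 leaf rice stage, four repeats of 50 m^2 each.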

Cyperaceae = assay: as above; parameters: key: level scale; higher level = more weed left vs blank control; settings: 150 g a.i./ha (penoxsulam control 250 g(a.i.)/h)
Summary of the method: as §3

Gramineae = assay: as above; parameters: key: level scale; higher level = more weed left vs blank control; settings: 150 g a.i./ha (penoxsulam control 250 g(a.i.)/h)
Summary of the method: as §3

Acalypha australis = assay: Field test for weed control in a corn field; settings: 150 g a.i./ha, after treatment
Summary of the method: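 Post-emergence field trial in a corn field following GB/T 17980.42-2000. Test compounds were formulated as 10% emulsifiable concentrates, diluted in water, and sprayed at 150 g(a.i.)/ha when corn had 2 to 5 leaves, with 4 replicates on 20 m^2 plots. Mesotrione 25% oil dispersion served as the control agent. Weed control was scored on a 1-9 scale.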

Amaranthus retroflexus [13] = assay: Field test for weed control in a corn field; settings: 150 g a.i./ha, 30 days after treatment
Summary of the method: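 Field efficacy trial in a corn field following GB/T 17980.42-2000. Test compounds were formulated as 10% emulsifiable concentrates, diluted in water and sprayed post-emergence when corn had 2 to 5 leaves. Each treatment covered 20 m^2 with 4 replicates. A 25% mesotrione oil dispersion served as control. Damage to Amaranthus retroflexus was rated on a 1-9 scale against untreated blank plots.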

Barnyard grass [14] = assay: Field test for weed control in a corn field; settings: 150 g a.i./ha, 30 days after treatment
Summary of the method: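 Corn-field efficacy trial following GB/T 17980.42-2000. Test compounds were formulated as 10% emulsifiable concentrates, diluted in water and sprayed post-emergence at 150 g(a.i.)/ha when corn had 2 to 5 leaves. Each treatment was replicated 4 times on 20 m^2 plots. Barnyard grass control was rated on a 1-9 damage scale.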

Chenopodium album = assay: Field test for weed control in a corn field; settings: 150 g a.i./ha, after treatment
Summary of the method: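 A corn-field efficacy trial following GB/T 17980.42-2000 tested post-emergence control of Chenopodium album. Test compounds formulated as 10% emulsifiable concentrates were diluted in water and sprayed at 150 g(a.i.)/ha when the corn had 2 leaves to 5 leaves, on 20 m^2 plots with 4 replicates. Herbicidal activity was rated on a 1-9 scale by damage symptoms and severity.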

Convolvulus arvensis = assay: Field test for weed control in a corn field; settings: 150 g a.i./ha, after treatment
Summary of the method: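 Field trial of weed control against Convolvulus arvensis in corn, run following GB/T 17980.42-2000. Test agents were formulated as 10% emulsifiable concentrates and sprayed in water at 150 g(a.i.)/ha when corn plants had 2 to 5 leaves. Each treatment was replicated 4 times on 20 m^2 plots, and 25% mesotrione oil dispersion served as the control agent.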

Digitaria sanguinalis [15] = assay: Field test for weed control in a corn field; settings: 150 g a.i./ha, after treatment
Summary of the method: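 Field trial in a corn field following GB/T 17980.42-2000. Test compounds were formulated as 10% emulsifiable concentrates, diluted in water and sprayed post-emergence at 150 g(a.i.)/ha when corn had 2 to 5 leaves, with 4 replicates on 20 m^2 plots. Control of Digitaria sanguinalis was scored on a 1-9 scale based on weed damage relative to the untreated blank area.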

Portulaca oleracea = assay: Field test for weed control in a corn field; settings: 150 g a.i./ha, after treatment
Summary of the method: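 Field efficacy trial in corn following GB/T 17980.42-2000. Test compounds were prepared as 10% emulsifiable concentrates, diluted in water, and sprayed at 150 g(a.i.)/ha when corn had 2 to 5 leaves after sowing. Plots were 20 m^2 with 4 replicates per treatment. Herbicidal activity was scored on a 1-9 scale from weed damage symptoms and severity.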

Solanum nigrum = assay: Field test for weed control in a corn field; settings: 150 g a.i./ha, 30 days after treatment
Summary of the method: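 Post-emergence weed control was tested in a corn field following GB/T 17980.42-2000. Compounds were made into 10% emulsifiable concentrates, diluted in water and sprayed at 150 g(a.i.)/ha when corn had 2 to 5 leaves after sowing, in 20 m^2 plots with 4 replicates. Effects on Solanum nigrum were graded on a 1-9 scale relative to the blank control area.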

goosegrass = assay: Field test for weed control in a corn field; settings: 150 g a.i./ha, after treatment
Summary of the method: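 Weed control efficacy against goosegrass was tested in a corn field following GB/T 17980.42-2000. Compounds formulated as 10% emulsifiable concentrates were diluted in water and sprayed post-emergence at 150 g(a.i.)/ha when corn had 2 to 5 leaves, with 4 replicates of 20 m^2 plots. Herbicidal activity was rated on a 1-9 scale by damage symptoms and severity.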

green bristlegrass [16] = assay: Field test for weed control in a corn field; settings: 150 g a.i./ha, after treatment
Summary of the method: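 Post-emergence weed control was tested in a corn field following GB/T 17980.42-2000. When the corn had 2 leaves to 5 leaves after sowing, 10% emulsifiable concentrates diluted in water were sprayed at 150 g(a.i.)/ha on 20 m^2 plots, four replicates per treatment. Effects on green bristlegrass were scored on a 1-9 damage scale relative to the blank control area.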

nutgrass flatsedge = assay: Field test for weed control in a corn field; settings: 150 g a.i./ha, after treatment
Summary of the method: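 A corn field efficacy trial following GB/T 17980.42-2000 assessed post-emergence control of nutgrass flatsedge. Test compounds were formulated as 10% emulsifiable concentrates, diluted in water, and sprayed at 150 g(a.i.)/ha when the corn had 2 to 5 leaves. Each treatment had 4 replicates on 20 m^2 plots. Herbicidal activity was graded on a 1-9 scale by damage symptoms and severity.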

Row | Structure (SMILES) | Herbicidal Activity Barnyard grass (Barnyard grass [1]) | Herbicidal Activity Piemarker (Piemarker [2]) | Herbicidal Activity Green bristlegrass (green bristlegrass [3]) | Herbicidal Activity Amaranthus retroflexus (Amaranthus retroflexus [4]) | Herbicidal Activity Digitaria sanguinalis (Digitaria sanguinalis [5]) | Herbicidal Activity Humulus scandens (Humulus scandens [6]) | Herbicidal Activity Amaranthus retroflexus (Amaranthus retroflexus [7]) | Herbicidal Activity Barnyard grass (Barnyard grass [8]) | Herbicidal Activity Digitaria sanguinalis (Digitaria sanguinalis [9]) | Herbicidal Activity Humulus scandens (Humulus scandens [10]) | Herbicidal Activity Piemarker (Piemarker [11]) | Herbicidal Activity Green bristlegrass (green bristlegrass [12]) | Herbicidal activity 15 days after treatment Broadleaf weed (Broadleaf weed) | Herbicidal activity 30 days after treatment Broadleaf weed (Broadleaf weed) | Herbicidal activity 15 days after treatment Cyperaceae (Cyperaceae) | Herbicidal activity 30 days after treatment Cyperaceae (Cyperaceae) | Herbicidal activity 15 days after treatment Gramineae (Gramineae) | Herbicidal activity 30 days after treatment Gramineae (Gramineae) | Post-emergence weed control effect, Acalypha australis (Acalypha australis) | Post-emergence weed control effect, Amaranthus retroflexus (Amaranthus retroflexus [13]) | also measured
1 | COc1ncccc1C(=O)NCc1ccc(F)cc1 [Compound A94] | 1 | 1 | 1 | 1 | 1 | 2 (equivalent to 0 to 2.5% of the weed in the blank control area) | 1 | 1 | 1 | 1 | 1 | 1 | 1 | 1 | 1 | 2 (equivalent to 0 to 2.5% of the weed in the blank control area) | 2 (equivalent to 0 to 2.5% of the weed in the blank control area) | 2 (equivalent to 0 to 2.5% of the weed in the blank control area) | 2 (equivalent to 0 to 2.5% of the weed in the blank control area) | 1 | Post-emergence weed control effect, Barnyard grass (Barnyard grass [14]): 1; Post-emergence weed control effect, Chenopodium album (Chenopodium album): 1; Post-emergence weed control effect, Convolvulus arvensis (Convolvulus arvensis): 2 (equivalent to 0 to 2.5% of the weed in the blank control area); Post-emergence weed control effect, Digitaria sanguinalis (Digitaria sanguinalis [15]): 2 (equivalent to 0 to 2.5% of the weed in the blank control area); Post-emergence weed control effect, Portulaca oleracea (Portulaca oleracea): 1; Post-emergence weed control effect, Solanum nigrum (Solanum nigrum): 2 (equivalent to 0 to 2.5% of the weed in the blank control area); Post-emergence weed control effect, Goose grass (goosegrass): 1; Post-emergence weed control effect, Green bristlegrass (green bristlegrass [16]): 2 (equivalent to 0 to 2.5% of the weed in the blank control area); Post-emergence weed control effect, Nutgrass flatsedge (nutgrass flatsedge): 3 (equivalent to 2.6 to 5% of the weed in the blank control area)
2 | Cc1cccc(C(=O)NCc2cccc(F)c2)c1 [Compound B01] | 2 (equivalent to 0 to 2.5% of the weed in the blank control area) | 2 (equivalent to 0 to 2.5% of the weed in the blank control area) | 1 | 1 | 1 | 2 (equivalent to 0 to 2.5% of the weed in the blank control area) | 1 | 2 (equivalent to 0 to 2.5% of the weed in the blank control area) | 1 | 1 | 1 | 1 | 1 | 2 (equivalent to 0 to 2.5% of the weed in the blank control area) | 2 (equivalent to 0 to 2.5% of the weed in the blank control area) | 2 (equivalent to 0 to 2.5% of the weed in the blank control area) | 2 (equivalent to 0 to 2.5% of the weed in the blank control area) | 2 (equivalent to 0 to 2.5% of the weed in the blank control area) | 2 (equivalent to 0 to 2.5% of the weed in the blank control area) | 1 | Post-emergence weed control effect, Barnyard grass (Barnyard grass [14]): 1; Post-emergence weed control effect, Chenopodium album (Chenopodium album): 1; Post-emergence weed control effect, Convolvulus arvensis (Convolvulus arvensis): 2 (equivalent to 0 to 2.5% of the weed in the blank control area); Post-emergence weed control effect, Digitaria sanguinalis (Digitaria sanguinalis [15]): 1; Post-emergence weed control effect, Portulaca oleracea (Portulaca oleracea): 1; Post-emergence weed control effect, Solanum nigrum (Solanum nigrum): 2 (equivalent to 0 to 2.5% of the weed in the blank control area); Post-emergence weed control effect, Goose grass (goosegrass): 1; Post-emergence weed control effect, Green bristlegrass (green bristlegrass [16]): 1; Post-emergence weed control effect, Nutgrass flatsedge (nutgrass flatsedge): 2 (equivalent to 0 to 2.5% of the weed in the blank control area)
